Data on one molecule can be found in patent US7772241B2, “Variolin derivatives and their use as antitumor agents” (Pharma Mar S.A., priority 2001, dated 2010).

The test system of one experiment is SK-BR-3. Put plainly: Inhibition of cells growth by colorimetric (SRB) assay, SK-BR-3. The note with it: for GI50 / CC50: Homo sapiens, SK-BR-3, 48 h. An outline of the steps:
(§1)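 Human tumour cells seeded at 5×10^3/well in RPMI 1640 10% FBS, attached 18 h, then exposed 48 h to samples at 10 to 10^−8 μg/ml in DMSO/EtOH/PBS (0.5:0.5:99). Growth read by SRB staining after TCA fixation, OD 490 nm, triplicate wells; GI, TGI and LC derived.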

In the next experiment the test system is LoVo-Dox. Description: Inhibition of cells growth by colorimetric (SRB) assay, LoVo-Dox. The note with it: for GI50 / CC50: Homo sapiens, 48 h. A digest of the protocol: as §1

Where two headings read alike, the source gives them in different places.

For orientation: GI50 means the concentration giving 50% growth inhibition. For the molecule `CSc1nccc(-c2c3cccnc3n3c(N(C(C)=O)C(C)=O)nccc23)n1` [Compound 26], the concentration for 50% growth inhibition (GI50) is 0.278 µM in the experiment with SK-BR-3 (read-out: GI50 SK-BR-3, SRB assay, 48 hours exposure); 4.18 µM with SK-BR-3 (read-out: SK-BR-3 GI50, SRB assay, 48 hours exposure); 1.79 µM in the experiment with LoVo-Dox (read-out: GI50 LOVO-DOX, SRB assay, 48 hours exposure); 6.09 µM in the experiment with LoVo-Dox (read-out: LOVO-DOX GI50, SRB assay, 48 hours exposure). In addition, the CC50 amounted to 2.53 µM with SK-BR-3 (read-out: LC50 SK-BR-3, SRB assay, 48 hours exposure); 20.7 µM with SK-BR-3 (read-out: SK-BR-3 LC50, SRB assay, 48 hours exposure); 25.5 µM in the experiment on LoVo-Dox (read-out: LC50 LOVO-DOX, SRB assay, 48 hours exposure); 19 µM in the experiment with LoVo-Dox (read-out: LOVO-DOX LC50, SRB assay, 48 hours exposure). Besides, in the experiment on SK-BR-3 (SRB assay, 48 hours exposure), the “SK-BR-3 TGI” value amounted to 9.30E−06. In the experiment on SK-BR-3 (SRB assay, 48 hours exposure), the “TGI SK-BR-3” value was 8.38E−07. For the same molecule, the “LOVO-DOX TGI” value in the experiment with LoVo-Dox (SRB assay, 48 hours exposure) was found to be 1.08E−06. Also, in the experiment with LoVo-Dox (SRB assay, 48 hours exposure), the “TGI LOVO-DOX” value was 1.10E−05.
